“And” between values parts separate entries of the source, which are not always exact repeats. Equal entries are not always repeated.
Legend:
female mosquitoes = assay: Efficacy by ingestion: feeder test in 6-liter cage, death rate of female mosquitoes; assay type: in vivo; settings: for death after 24 hours of feeding: fasted 24 hours
Excerpt: Female mosquitoes were used in the experiment because only female mosquitoes bite humans and animals and transmit infectious diseases.
(§1) (2R)-3-fluoropropane-1,2-diol (rFOH) was used as the active agent at various concentrations. A sugar feeder containing 10% sucrose, which is a regular mosquito feeder in a laboratory setting, was used as a regular food source in free choice studies. A free choice study allows the pests to select which feeder to feed on when given two or more choices.
In a two-choice test, a 6-liter cage was supplied with two feeders, one contained 5% rFOH and 10% sucrose in CPDA and the other one contained 10% sucrose without any rFOH or CPDA. 100 female mosquitoes were placed in the cage having the two feeders such that the mosquitoes chose freely which feeder to feed on. After 24 hours of feeding in the cage, over 80% of mosquitoes were dead. […] When the concentration of rFOH was reduced to 1% or 0.15%, its effectiveness remained the same. Over 80% of mosquitoes were dead due to 24 hours of feeding with rFOH.
Subsequent to 24 hours of feeding, rFOH feeder was removed from the cage and a regular sugar feeder (10% sucrose) was provided. In the next day, 5-20% of residual death was observed, indicating a delayed death after rFOH ingestion.
In a further study, mosquitoes were fasted for 24 hours before feeding to ensure that all mosquitoes have the capacity for food intake. […] Thus, fasting is not a cause of mosquito death during a series of experiments.
The experiments determined that 0.1% rFOH was sufficient to achieve 50% death (LD50) under various conditions. In one study, 100 mosquitoes were caged in a 6-liter space and fasted for 24 hours. Subsequently, the mosquitoes were fed on two feeders giving their free choices for 0.1% rFOH containing 10% sucrose in CPDA or 10% sucrose without rFOH for 24 hours, resulting in 43% death. In a parallel study in which the cage was supplied with a single feeder, the 0.1% rFOH feeder containing 10% sucrose in CPDA, which caused 44% of death after 24 hours of feeding.
Similar experiments as disclosed above were performed with various rFOH concentrations under various conditions. The rFOH composition contained 10% sugar in CPDA solution unless specified otherwise.
Similar experiments as disclosed above were performed on female mosquitoes to determine LD50. The rFOH composition contained 10% sugar in CPDA solution unless specified otherwise.
Similar experiments as disclosed above were performed on female mosquitoes using different active agents at various concentrations. The active agent composition contained 10% sugar in CPDA solution unless specified otherwise.

[1] = tested on: Escherishia coli DH5α transformed with a pcDNA3 plasmid (DH5P); assay: MIC test, broth microdilution (CLSI M07-A9); assay type: cell-based; settings: Tryptic soy broth, 37° C. for 24 hrs
Protocol: (§2) The effects of pesticides disclosed herein on various bacteria were tested by determining the minimal inhibitory concentration (MIC) of the pesticides. MIC of an antimicrobial agent is the lowest concentration of the antimicrobial agent that inhibits a given bacterial isolate from multiplying and producing visible growth in the test system. The MIC of rFOH and BrOH was determined in the laboratory by incubating a known quantity of bacteria with a series of dilutions of the active agents and comparing their effects with those of known antimicrobial agents. Table 6 lists the representative bacterial strains and the conditions in MIC tests. Antimicrobial tests of the active agents were conducted according to “Methods for Dilution Antimicrobial Susceptibility Tests for Bacteria That Grow Aerobically” by Clinical and Laboratory Standards Institute (CLSI) (CLSI document M07-A9, 2012). In the study, methicillin/oxacillin resistant Staphylococcus aureus (MRSA) strain (ATCC 43300) was routinely under screening with 4 ug/ml oxacillin. Escherishia coli DH5α was a nonpathogenic laboratory strain. […] When the DH5α/plasmid (DH5P) colony was used, the colony was maintained in the presence of 100 ug/ml ampicillin.
(§3) MIC tests were conducted in 96 well microtiter plates with a total volume of 150 ul broth in each well. The directly colony suspension method (CLSI document M07-A9, 2012) was applied to obtain MIC for antimicrobial tests of the active agents. After colonies were freshly incubated overnight, colonies were suspended in sterile water to adjust the inoculum to a turbidity equivalent to a 0.5 McFarland standard (corresponding to approximately 1.5×10^8 CFU/ml). Within 10 minutes, the inoculum was adjusted by dilution in broth to reach a final concentration of 5×10^5 CFU/ml. A series of various concentrations of the active agents were applied to determine the MIC. In the same microtiter plate, an internal standard formulated by a concentration series of standard antibiotic agent was incubated in parallels to allow for back-to-back comparison.

Escherishia coli DH5α = assay: MIC test, broth microdilution (CLSI M07-A9); assay type: cell-based; settings: Tryptic soy broth, 37° C. for 24 hrs
Protocol: as §2, §3

[2] = tested on: Methicillin/oxacillin resistant Staphylococcus aureus (MRSA) strain (ATCC 43300); assay: MIC test, broth microdilution (CLSI M07-A9); assay type: cell-based; settings: Mueller Hinton broth with 2% NaCl and 50 ug/ml CaCl2, 35° C. for 24 hrs
Protocol: as §2, §3

male mosquitoes = assay: Efficacy by ingestion: feeder test, death rate of male mosquitoes; assay type: in vivo; settings: 0.1% rFOH, 10% sugar in CPDA, 24 hrs, 24 hrs fasting, sugar feeder provided for free choice
Protocol: as §1
Similar experiments as disclosed above were performed on female mosquitoes and male mosquitoes. The rFOH composition contained 10% sugar in CPDA solution unless specified otherwise.

mosquitoes = assay: Toxicity of rFOH by air exposure (container protected with a net to prevent ingestion); assay type: in vivo
Protocol: The CPDA contained 3.33 g sodium citrate, 0.376 g citric acid, 4.02 g glucose, 0.28 g sodium monobasic phosphate, and 0.346 g adenine in 1 liter of solution. (2R)-3-fluoropropane-1,2-diol (rFOH) was used as the active agent at a concentration of 1%.
100 mosquitoes were placed in a 6-liter cage with a container containing 1% rFOH in 10% sucrose with CPDA for 48 hours at room temperature (25-28° C.). The container was protected with a net to prevent ingestion of rFOH by the mosquitoes. […] The same result was obtained even when 10% of rFOH was used.

SMILES: OC[C@@H](O)CF [rFOH, (2R)-3-fluoropropane-1,2-diol]
- Death Rate (female mosquitoes; 0.1% rFOH, 5% sugar, CPDA, 5% maltose, 24 hrs, 24 hrs fasting, sugar feeder provided for free choice): 54%
- Death Rate (female mosquitoes; 0.1% rFOH, 5% sugar, CPDA, 25% Maple Syrup, 24 hrs, 24 hrs fasting, sugar feeder provided for free choice): 26-47%
- Death Rate (female mosquitoes; 0.1% rFOH, 5% sugar, CPDA, 50% corn syrup, 24 hrs, 24 hrs fasting, sugar feeder provided for free choice): 22-30%
- death after 24 hours of feeding (female mosquitoes; 0.1% rFOH, 10% sucrose in CPDA, free choice with 10% sucrose feeder): 43%
- death after 24 hours of feeding (female mosquitoes; 0.1% rFOH, 10% sucrose in CPDA, single feeder): 44%
- Death Rate (female mosquitoes; 0.1% rFOH, 10% sugar in CPDA, 24 hrs, 24 hrs fasting, sugar feeder not provided): 65%
- Death Rate (female mosquitoes; 0.1% rFOH, 10% sugar in CPDA, 24 hrs, 24 hrs fasting, sugar plus CPDA feeder provided for free choice): 59-80%
- Death Rate (female mosquitoes; 0.1% rFOH, 10% sugar in CPDA, 24 hrs, not fasted, sugar feeder provided for free choice): 64%
- Death Rate (female mosquitoes; 0.1% rFOH, 10% sugar, no CPDA, 24 hrs, 24 hrs fasting, sugar feeder provided for free choice): 44-50%
- total death rate incl. residual death (female mosquitoes; 0.1% rFOH, rFOH feeder replaced by sugar feeder, residual death within next 24 hours included): 46-64%
- death of female mosquitoes after 24 hours of feeding (female mosquitoes; 0.15% rFOH): more than 90%
- Death Rate (female mosquitoes; 0.15% rFOH, 10% sucrose in CPDA, 24 hours feeding, two-choice with 10% sucrose feeder): over 80%
- Death Rate (female mosquitoes; 0.15% rFOH, 10% sugar in CPDA, 24 hrs, 24 hrs fasting, sugar feeder not provided): 95-98%
- Death Rate (female mosquitoes; 0.15% rFOH, 10% sugar in CPDA, 24 hrs, 24 hrs fasting, sugar feeder provided for free choice): 55-80%
- time to death after ingestion (female mosquitoes; 0.15% rFOH, female mosquitoes): 2 to 5 h
- Death Rate (female mosquitoes; 1% rFOH, 10% sucrose in CPDA, 24 hours feeding, two-choice with 10% sucrose feeder): over 80%
- Death Rate (female mosquitoes; 5% rFOH, 10% sugar in CPDA, 24 hrs, not fasted, sugar feeder not provided): 94%
- residual death in the next day (female mosquitoes; after 24 hours feeding rFOH feeder removed, regular sugar feeder (10% sucrose) provided): 5-20%
- rFOH per mosquito corresponding to 0.15% rFOH (female mosquitoes; assuming a female mosquito ingests as much as 0.6 μl of the composition, >90% death): 0.001 mg
- MIC [1]: 0.4%
- MIC (Escherishia coli DH5α): 0.4% and 0.43%
- MIC [2]: 0.4%
- Death Rate (male mosquitoes): 95%
- death of mosquito by air exposure (mosquitoes; 1% rFOH in 10% sucrose with CPDA, container protected with net, 48 hours, room temperature (25-28° C.)): No death
- death of pests when exposed but not ingested (mosquitoes; concentration 100-fold as high as the LD50, not ingested): no death

— patent US11553713B2, “Polyalcohol, carbohydrate, nucleobase and nucleotide compositions and uses thereof” (Chunbo Zhang, priority 2015, dated 2023)
